Converted amounts (≈) assume the structure as drawn. Values belong to the compound of their own block, whether it stands above or below them.
Experiments:
Acinetobacter baumannii [1] = assay: Antimicrobial activity against drug-resistant Acinetobacter baumannii producing PER1 beta-lactamase; assay type: functional
Acinetobacter baumannii [2] = assay: Antimicrobial activity against Acinetobacter baumannii isolate producing OXA-23 beta-lactamase by agar dilution method; assay type: functional
Acinetobacter baumannii [3] = assay: Antimicrobial activity against Acinetobacter baumannii isolate producing IMP-4 beta-lactamase by agar dilution method; assay type: functional
Acinetobacter baumannii [4] = assay: Antimicrobial activity against Acinetobacter baumannii isolate producing metallo beta-lactamase by agar dilution method; assay type: functional
Acinetobacter baumannii [5] = assay: Antimicrobial activity against carbapenem-resistant Acinetobacter baumannii expressing ISAba1; assay type: functional
Acinetobacter baumannii [6] = assay: Antimicrobial activity against carbapenem-resistant Acinetobacter baumannii expressing ISAba3; assay type: functional
Homo sapiens = species: Homo sapiens; assay: […] in carbapenem-resistant Acinetobacter baumannii infected human assessed as incidence of acute renal failure; assay type: toxicity, organism-based; details: in vivo
Acinetobacter baumannii [7] = assay: Antimicrobial activity against Acinetobacter baumannii isolates by E-test; assay type: functional, organism-based

Compound: CO/N=C(\C(=O)N[C@@H]1C(=O)N2C(C(=O)[O-])=C(C[N+]3(C)CCCC3)CS[C@H]12)c1csc(N)n1 [CEFEPIME]
MIC (Acinetobacter baumannii [1]): 32 µg/mL (≈ 66.6 µM)

Compound: CC(C)(O/N=C(\C(=O)N[C@@H]1C(=O)N2C(C(=O)[O-])=C(C[n+]3ccccc3)CS[C@H]12)c1csc(N)n1)C(=O)O [CEFTAZIDIME]
MIC (Acinetobacter baumannii [1]): 256 µg/mL (≈ 468 µM)

MIC (Acinetobacter baumannii [2]): ≤ 4 µg/mL
MIC50 (Acinetobacter baumannii [2]): 0.5 µg/mL (≈ 1.19 µM)
MIC90 (Acinetobacter baumannii [2]): 16 µg/mL (≈ 38 µM)
MIC (Acinetobacter baumannii [3]): ≤ 4 µg/mL
MIC50 (Acinetobacter baumannii [3]): 0.5 µg/mL (≈ 1.19 µM)
MIC90 (Acinetobacter baumannii [3]): 16 µg/mL (≈ 38 µM)
MIC (Acinetobacter baumannii [4]): ≤ 4 µg/mL
MIC50 (Acinetobacter baumannii [4]): 0.5 µg/mL (≈ 1.19 µM)
MIC90 (Acinetobacter baumannii [4]): 16 µg/mL (≈ 38 µM)
Compound: C[C@@H](O)[C@H]1C(=O)N2C(C(=O)O)=C(S[C@@H]3CN[C@H](CNS(N)(=O)=O)C3)[C@H](C)[C@H]12 [DORIPENEM]

Compound: C[C@@H](O)[C@H]1C(=O)N2C(C(=O)O)=C(SCCNC=N)C[C@H]12 [IMIPENEM ANHYDROUS]
MIC (Acinetobacter baumannii [5]): ≥ 32 µg/mL
MIC (Acinetobacter baumannii [6]): ≥ 32 µg/mL

Compound: C[C@@H](O)[C@H]1C(=O)N2C(C(=O)O)=C(S[C@@H]3CN[C@H](C(=O)N(C)C)C3)[C@H](C)[C@H]12 [MEROPENEM]
MIC (Acinetobacter baumannii [5]): ≥ 32 µg/mL
MIC (Acinetobacter baumannii [6]): ≥ 32 µg/mL

Compound: COLISTIN [listing 1 of 2 here]
Activity (Homo sapiens): 14%

MIC (Acinetobacter baumannii [7]): 1 µg/mL
Compound: COLISTIN [listing 2 of 2 here]

— ChEMBL document CHEMBL1138532, “Global challenge of multidrug-resistant Acinetobacter baumannii” (Antimicrob Agents Chemother, 2007)
